Experimental data reported in US20060067886A1, “Gastrin receptor-avid peptide conjugates” (priority 1997, published 2006).

Biological target: T1, GRP receptors on Swiss 3T3 cells (Mus musculus, UniProt P21729)
T1 construct: endogenous in cells; host or cells: Swiss 3T3 mouse fibroblasts (whole cells)
Assay: Competitive cell binding vs 125I-Tyr4-BBN, Swiss 3T3 cells
Procedure: The binding affinities of the synthetic BBN derivatives were assessed for GRP receptors on Swiss 3T3 cells and, in some cases, on a variety of human cancer cell lines, that express GRP receptors. […] The cell binding assay methods used to measure the IC50's is standard and used techniques previously reported [Jensen et al., 1993; Cai et al., 1994; Cai et al., 1992]. The methods used for determining IC50's for all GRP receptor binding compounds on all cell lines was similar. The specific method used to measure IC50's on Swiss 3T3 cells is briefly described as follows:
(§1) Swiss 3T3 mouse fibroblasts are grown to confluence in 48 well microtiter plates. […] The growth media was removed, the cells were washed twice with incubation media, and incubation media was returned to the cells. ^125I-Tyr4-BBN (0.01 uCi) was added to each well in the presence of increasing concentrations of the appropriate competitive peptide. Typical concentrations of displacing peptide ranged from 10-12 to 10-5 moles of displacing ligand per well. The cells were incubated at 37° C. for forty minutes in a 95% […]/5% CO2 humidified environment. At forty minutes post initiation of the incubation, the medium was discarded, and the cells were washed twice with cold incubation media. The cells were harvested from the wells following incubation in a trypsin/EDTA solution for five minutes at 37° C. Subsequently, the radioactivity, per well, was determined and the maximum % total uptake of the radiolabeled peptide was determined and normalized to 100%.
The binding affinities of the synthetic BBN derivatives were assessed for GRP receptors on Swiss 3T3 cells, PC-3 cells and CF PAC-1 cells. The IC50's of each of derivative were determined relative to (i.e., in competition with) ^125I-Tyr^4-BBN. The cell binding assay methods used to measure the IC50's is standard and was used by techniques previously reported [Jensen et al., 1993; Cai et al., 1992; Cai et al., 1994]. The methods used for determining IC50's with all BBN analogue binding to GRP receptors present on all three cell lines were similar. The specific method used to measure IC50's on Swiss 3T3 cells, is briefly described as follows:
as §1, with “microliter” for “microtiter”, “^125I-Tyr^4-BBN” for “^125I-Tyr4-BBN”, “μCi)” for “uCi)”, “10^−12” for “10-12”, “10^−5” for “10-5”, “100%. A similar procedure was used in performing cell binding assays with both the PC-3 and CFa-PAC-1 human cancer cell lines.” for “100%.”

T1 sequence (P21729 whole entry): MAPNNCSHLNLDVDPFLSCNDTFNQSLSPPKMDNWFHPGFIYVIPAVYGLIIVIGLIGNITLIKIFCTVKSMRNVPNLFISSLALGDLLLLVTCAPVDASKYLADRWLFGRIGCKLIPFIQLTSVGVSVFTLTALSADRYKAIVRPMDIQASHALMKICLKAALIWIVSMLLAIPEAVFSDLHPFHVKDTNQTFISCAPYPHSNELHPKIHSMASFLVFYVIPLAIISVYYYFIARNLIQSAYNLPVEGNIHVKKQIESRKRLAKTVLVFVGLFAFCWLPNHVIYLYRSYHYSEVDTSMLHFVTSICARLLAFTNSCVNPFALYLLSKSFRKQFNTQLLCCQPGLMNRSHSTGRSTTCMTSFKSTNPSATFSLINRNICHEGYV

| Compound | IC50 |
| --- | --- |
| CSCC[C@H](NC(=O)[C@H](CC(C)C)NC(=O)[C@H](Cc1c[nH]cn1)NC(=O)CNC(=O)[C@@H](NC(=O)[C@H](C)NC(=O)[C@H](Cc1c[nH]c2ccccc12)NC(=O)[C@H](CCC(N)=O)NC(=O)CCCCCCCNC(=O)COC1CSCCCSCCCSCCCSC1)C(C)C)C(N)=O [BBN-47] | 4.19 ± 0.91 nM |
| CSCC[C@H](NC(=O)[C@H](CC(C)C)NC(=O)[C@H](Cc1c[nH]cn1)NC(=O)CNC(=O)[C@@H](NC(=O)[C@H](C)NC(=O)[C@H](Cc1c[nH]c2ccccc12)NC(=O)[C@H](CCC(N)=O)NC(=O)CCNC(=O)COC1CSCCCSCCCSCCCSC1)C(C)C)C(N)=O [RhCl2BBN-46] | 3.38 ± 0.69 nM |
| CSCC[C@H](NC(=O)[C@H](CC(C)C)NC(=O)[C@H](Cc1c[nH]cn1)NC(=O)CNC(=O)[C@@H](NC(=O)[C@H](C)NC(=O)[C@H](Cc1c[nH]c2ccccc12)NC(=O)[C@H](CCC(N)=O)NC(=O)CCCCNC(=O)COC1CSCCCSCCCSCCCSC1)C(C)C)C(N)=O [BBN-37] | 1.79 ± 0.09 nM |
